Results: ChEMBL document CHEMBL1150459, “The -iodoethoxyl group: a stable unit for radioiodination” (Bioorg Med Chem Lett, 1994)

What was measured:
Mus musculus [1] = test: Biodistribution of [123I]- labeled compound in mice brain was determined after 5 min of administration; expressed in percent of injected dose per gram of organ; type: ADME, organism-based; settings: in vivo
Mus musculus [2] = test: Biodistribution of [123I]- labeled compound in mice heart was determined after 30 sec of administration; expressed in percent of injected dose per gram of organ; type: ADME, organism-based; settings: in vivo, 0.5 min
Mus musculus [3] = test: Biodistribution of [123I]- labeled compound in mice liver was determined after 30 sec of administration; expressed in percent of injected dose per gram of organ; type: ADME, organism-based; settings: in vivo, 0.5 min
Mus musculus [4] = test: Biodistribution of [123I]- labeled compound in mice liver was determined after 10 min of administration; expressed in percent of injected dose per gram of organ; type: ADME, organism-based; settings: in vivo
Mus musculus [5] = test: Biodistribution of [123I]- labeled compound in mice kidneys was determined after 2 min of administration; expressed in percent of injected dose per gram of organ; type: ADME, organism-based, Kidney; settings: in vivo
Mus musculus [6] = test: Biodistribution of [123I]- labeled compound in mice heart was determined after 5 min of administration; expressed in percent of injected dose per gram of organ; type: ADME, organism-based; settings: in vivo
Mus musculus [7] = test: Biodistribution of [123I]- labeled compound in mice liver was determined after 1 min of administration; expressed in percent of injected dose per gram of organ; type: ADME, organism-based; settings: in vivo
Mus musculus [8] = test: Biodistribution of [123I]- labeled compound in mice lungs was determined after 30 sec of administration; expressed in percent of injected dose per gram of organ; type: ADME, organism-based, Lung; settings: in vivo, 0.5 min
Mus musculus [9] = test: Biodistribution of [123I]- labeled compound in mice kidneys was determined after 30 sec of administration; expressed in percent of injected dose per gram of organ; type: ADME, organism-based, Kidney; settings: in vivo, 0.5 min
Mus musculus [10] = test: Biodistribution of [123I]- labeled compound in mice heart was determined after 15 sec of administration; expressed in percent of injected dose per gram of organ; type: ADME, organism-based; settings: in vivo, 15 s
Mus musculus [11] = test: Biodistribution of [123I]- labeled compound in mice brain was determined after 2 min of administration; expressed in percent of injected dose per gram of organ; type: ADME, organism-based; settings: in vivo
Mus musculus [12] = test: Biodistribution of [123I]- labeled compound in mice heart was determined after 10 min of administration; expressed in percent of injected dose per gram of organ; type: ADME, organism-based; settings: in vivo
Mus musculus [13] = test: Biodistribution of [123I]- labeled compound in mice lungs was determined after 15 sec of administration; expressed in percent of injected dose per gram of organ; type: ADME, organism-based, Lung; settings: in vivo, 15 s
Mus musculus [14] = test: Biodistribution of [123I]- labeled compound in mice kidneys was determined after 10 min of administration; expressed in percent of injected dose per gram of organ; type: ADME, organism-based, Kidney; settings: in vivo
Mus musculus [15] = test: Biodistribution of [123I]- labeled compound in mice kidneys was determined after 5 min of administration; expressed in percent of injected dose per gram of organ; type: ADME, organism-based, Kidney; settings: in vivo
Mus musculus [16] = test: Biodistribution of [123I]- labeled compound in mice liver was determined after 5 min of administration; expressed in percent of injected dose per gram of organ; type: ADME, organism-based; settings: in vivo
Mus musculus [17] = test: Biodistribution of [123I]- labeled compound in mice liver was determined after 15 sec of administration; expressed in percent of injected dose per gram of organ; type: ADME, organism-based; settings: in vivo, 15 s
Mus musculus [18] = test: Biodistribution of [123I]- labeled compound in mice kidneys was determined after 15 sec of administration; expressed in percent of injected dose per gram of organ; type: ADME, organism-based, Kidney; settings: in vivo, 15 s
Mus musculus [19] = test: Biodistribution of [123I]- labeled compound in mice heart was determined after 2 min of administration; expressed in percent of injected dose per gram of organ; type: ADME, organism-based; settings: in vivo
Mus musculus [20] = test: Biodistribution of [123I]- labeled compound in mice brain was determined after 10 min of administration; expressed in percent of injected dose per gram of organ; type: ADME, organism-based; settings: in vivo
Mus musculus [21] = test: Biodistribution of [123I]- labeled compound in mice lungs was determined after 2 min of administration; expressed in percent of injected dose per gram of organ; type: ADME, organism-based, Lung; settings: in vivo
Mus musculus [22] = test: Biodistribution of [123I]- labeled compound in mice heart was determined after 1 min of administration; expressed in percent of injected dose per gram of organ; type: ADME, organism-based; settings: in vivo
Mus musculus [23] = test: Biodistribution of [123I]- labeled compound in mice brain was determined after 30 sec of administration; expressed in percent of injected dose per gram of organ; type: ADME, organism-based; settings: in vivo, 0.5 min
Mus musculus [24] = test: Biodistribution of [123I]- labeled compound in mice lungs was determined after 10 min of administration; expressed in percent of injected dose per gram of organ; type: ADME, organism-based, Lung; settings: in vivo
Mus musculus [25] = test: Biodistribution of [123I]- labeled compound in mice lungs was determined after 1 min of administration; expressed in percent of injected dose per gram of organ; type: ADME, organism-based, Lung; settings: in vivo
Mus musculus [26] = test: Biodistribution of [123I]- labeled compound in mice brain was determined after 1 min of administration; expressed in percent of injected dose per gram of organ; type: ADME, organism-based; settings: in vivo
Mus musculus [27] = test: Biodistribution of [123I]- labeled compound in mice kidneys was determined after 1 min of administration; expressed in percent of injected dose per gram of organ; type: ADME, organism-based, Kidney; settings: in vivo
Mus musculus [28] = test: Biodistribution of [123I]- labeled compound in mice liver was determined after 2 min of administration; expressed in percent of injected dose per gram of organ; type: ADME, organism-based; settings: in vivo
Mus musculus [29] = test: Biodistribution of [123I]- labeled compound in mice lungs was determined after 5 min of administration; expressed in percent of injected dose per gram of organ; type: ADME, organism-based, Lung; settings: in vivo
Mus musculus [30] = test: Biodistribution of [123I]- labeled compound in mice brain was determined after 15 sec of administration; expressed in percent of injected dose per gram of organ; type: ADME, organism-based; settings: in vivo, 15 s

- Biodistribution (Mus musculus [1]): 2.4%
- Biodistribution (Mus musculus [2]): 7.9%
- Biodistribution (Mus musculus [3]): 5.5%
- Biodistribution (Mus musculus [4]): 7.1%
- Biodistribution (Mus musculus [5]): 11.3%
- Biodistribution (Mus musculus [6]): 4.2%
- Biodistribution (Mus musculus [7]): 7.8%
- Biodistribution (Mus musculus [8]): 12.6%
- Biodistribution (Mus musculus [9]): 8.8%
- Biodistribution (Mus musculus [10]): 17.8%
- Biodistribution (Mus musculus [11]): 4.1%
- Biodistribution (Mus musculus [12]): 3.2%
- Biodistribution (Mus musculus [13]): 18.4%
- Biodistribution (Mus musculus [14]): 12.7%
- Biodistribution (Mus musculus [15]): 13.2%
- Biodistribution (Mus musculus [16]): 9.9%
- Biodistribution (Mus musculus [17]): 2.3%
- Biodistribution (Mus musculus [18]): 8.6%
- Biodistribution (Mus musculus [19]): 5.3%
- Biodistribution (Mus musculus [20]): 1.6%
- Biodistribution (Mus musculus [21]): 10.9%
- Biodistribution (Mus musculus [22]): 6.2%
- Biodistribution (Mus musculus [23]): 5.1%
- Biodistribution (Mus musculus [24]): 6.5%
- Biodistribution (Mus musculus [25]): 12%
- Biodistribution (Mus musculus [26]): 4.7%
- Biodistribution (Mus musculus [27]): 9%
- Biodistribution (Mus musculus [28]): 8.5%
- Biodistribution (Mus musculus [29]): 8.8%
- Biodistribution (Mus musculus [30]): 5.5%
SMILES: O=C(O)CCOCCI
